# Reference: patent US20190231751A1, “TREATMENT OF FIBROTIC DISORDERS WITH JUN N-TERMINAL KINASE INHIBITORS” (Imago Pharmaceuticals, Inc., priority 2016, published 2019)
# Key:
# [1] = test system: monocyte/macrophage recruitment; assay: Monocyte/macrophage recruitment in vivo (Example 9); details: 10 mg/kg/day p.o.; model not specified
# JNK3 = JNK3 (Homo sapiens, UniProt P53779); assay: In vitro JNK3 inhibition (Table 1); assay type: biochemical
# Description: (§1) In vitro assays for the determination of JNK activities are known in the art and exemplary assay formats are described herein.
# (§2) IC50 values in Table 1 were determined using the procedures as described in U.S. Pat. No. 8,450,353.
# [2] = test system: bleomycin-induced lung fibrosis; assay: Mouse bleomycin-induced lung fibrosis model, therapeutic study; assay type: in vivo; details: 30 mg/kg b.i.d. oral gavage starting 7 days after bleomycin; male and female mice; 14 days
# Description: Age and gender-matched wild type mice on the C57BL/6 background were utilized for this study, as outlined in Table 3: Mice were housed in a sterile barrier facility and given a single inhaled dose of 1.25 Units/kg pharmacologic grade bleomycin (Teva Pharmaceuticals, Israel) in a volume of 50 μl. Mice received twice daily administered IGP001, via oral gavage, on a b.i.d. schedule starting 7 days after bleomycin treatment in this therapeutic study. Mice were sacrificed at 14 days following the administration of bleomycin and assessed as appropriate for deposited collagen in the lungs using Masson's Trichrome stain.
# [3] = test system: transgenic SREBP-1c model of NASH; assay: Transgenic SREBP-1c model of NASH; assay type: in vivo, mice; details: 10 mg/kg/day p.o.
# Description: The ability of IGP001 and IGP002 are tested in the transgenic SREBP-1c model of NASH. SREBP-1c is a lipogenic transcription factor, and overexpression creates a model of congenital lipodystrophy in which severe insulin resistance and diabetes develop secondary to impaired adipose differentiation (Shimomura I et al., Genes Dev 1998; 12: 3182-3194). In these mice, decreased fat tissue with lipid accumulation in the liver is observed, and marked hepatic steatosis occurs by […] of age. When fed a standard diet, steatosis, lobular inflammation, and perivenular and pericellular fibrosis develop at 20 weeks (Nakayama H, et al., Metabolism 2007; 56: 470-475; Takahashi Y, World J Gastroenterol. 2012 May 21; 18(19): 2300-2308).
# [4] = test system: thioacetamide-induced liver fibrosis; assay: Thioacetamide-induced rat model of liver fibrosis; assay type: in vivo; details: 10 mg/kg/day p.o.
# Description: The antifibrotic effects of IGP001 and IGP002 are also evaluated in a thioacetamide-induced rat model of liver fibrosis. Study assessments include body and liver/kidney weight, liver function test, liver/kidney morphology and collagen deposition, fibrogenic gene and protein expression, and pharmacokinetic analyses.
# JNK2 = JNK2 (Homo sapiens, UniProt P45984); assay: In vitro JNK2 inhibition (Table 1); assay type: biochemical
# Description: as §1, §2
# JNK1 = JNK1 (Homo sapiens, UniProt P45983); assay: In vitro JNK1 inhibition (Table 1); assay type: biochemical
# Description: as §1, §2
# ERK = assay: TGF-β1-induced ERK activation in human lung fibroblasts (Western blot); assay type: cell-based; details: HFL-1 cells; TGF-β1 1 ng/ml
# Description: (§3) IGP001 and IGP002 are shown to affect TGF-β1-induced MAP kinase activities in human lung fibroblasts. Human fetal lung fibroblasts (HFL-1) (ATCC, Rockville, Md.) are cultured in Ham's F12K medium (American Type Culture Collection) supplemented with 50 U/ml penicillin G sodium, 50 μg/ml streptonycin sulfate (GIBCO BRL, Life Technologies, Inc., Rockville, Md.) and 10% fetal bovine serum (FBS; Equitech-Bio. Inc., Ingram, Tex.) and maintained in humidified 5% CO2 at 37° C. After reaching confluence, the serum content of the medium is reduced to 0.4% FBS for 24 h. The cells are then stimulated with 1 ng/ml TGF-β1 to produce CTGF.
# (§4) To test the ability of IGP001 and IGP002 to suppress activation of JNK, HFL-1 cells are cultured with 0.1% DMSO (control vehicle), IGP001 or IGP002 at a concentration of […] for 30 minutes, followed by stimulation with TGF-β1 (1 ng/ml) for 30 minutes. Activities of JNK, p38 MAP kinase and ERK are determined by Western blotting whole cell lysates using antibodies specific for phosphorylated, activated forms of JNK, p38 MAP kinase, and ERK. Two identical experiments independently performed yielded similar results.
# JNK = assay: TGF-β1-induced JNK activation in human lung fibroblasts (Western blot); assay type: cell-based; details: HFL-1 cells; compound 30 minutes, then TGF-β1 1 ng/ml 30 minutes
# Description: as §3
# as §4, with “Two identical experiments independently performed yielded similar results.” left out
# Phosphorylated JNK protein levels are quantified by densitometry. The optical density of the p46 and p54 phosphorylated protein band are corrected for total p46 and p54 protein, respectively, and results are expressed as ratio (%) of control value (TGF-β1-stimulated HFL-1 cells).
# SMAD2 = assay: TGF-β1-induced SMAD2 phosphorylation in HFL-1 cells (Western blot); assay type: cell-based, human; details: TGF-β1 1 ng/ml
# Description: TGF-β1 factors initiate signaling by assembling receptor complexes that activate SMAD proteins. IGP001 and IGP002 are tested for their ability to suppress TGF-031 induction of SMAD signaling pathway by detecting the dually phosphorylated (Ser 465/Ser 467) form of SMAD2 by Western blotting against specific anti-phosphokinase antibody.
# HFL-1 cells are created as described above in Example 3. HFL-1 cells are cultured with 0.1% DMSO (control vehicle), IGP001 or IGP002 for 30 min before stimulation with TGF-β1 (1 ng/ml) for 4 hours. Total RNA is extracted and hybridized with human CTGF probes, and messenger RNA levels are quantified by densitometry and optical density of CTGF mRNA band was corrected for G3PDH, and results are expressed as ratio (%) of control value (TGF-β1-stimulated HFL-1 cells).
# Phosphorylation of SMAD2 following treatment with IGP001 or IGP002 are also determined by Western blotting whole cell lysates using an antibody specific for phosphorylated forms of SMAD2.
# Sequence of JNK1 (P45983 whole entry, species assumed): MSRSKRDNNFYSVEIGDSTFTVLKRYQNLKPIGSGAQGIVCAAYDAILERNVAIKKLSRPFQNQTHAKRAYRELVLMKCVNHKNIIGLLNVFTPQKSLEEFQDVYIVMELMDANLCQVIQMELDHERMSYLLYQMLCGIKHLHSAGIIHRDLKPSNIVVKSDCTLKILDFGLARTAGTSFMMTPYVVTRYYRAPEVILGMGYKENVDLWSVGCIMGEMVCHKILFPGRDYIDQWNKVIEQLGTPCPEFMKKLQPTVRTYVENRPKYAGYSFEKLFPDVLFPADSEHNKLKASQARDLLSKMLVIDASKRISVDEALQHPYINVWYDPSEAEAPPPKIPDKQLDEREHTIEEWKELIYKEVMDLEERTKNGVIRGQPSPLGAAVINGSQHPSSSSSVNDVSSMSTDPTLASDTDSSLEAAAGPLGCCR
# Sequence of JNK3 (P53779 whole entry, species assumed): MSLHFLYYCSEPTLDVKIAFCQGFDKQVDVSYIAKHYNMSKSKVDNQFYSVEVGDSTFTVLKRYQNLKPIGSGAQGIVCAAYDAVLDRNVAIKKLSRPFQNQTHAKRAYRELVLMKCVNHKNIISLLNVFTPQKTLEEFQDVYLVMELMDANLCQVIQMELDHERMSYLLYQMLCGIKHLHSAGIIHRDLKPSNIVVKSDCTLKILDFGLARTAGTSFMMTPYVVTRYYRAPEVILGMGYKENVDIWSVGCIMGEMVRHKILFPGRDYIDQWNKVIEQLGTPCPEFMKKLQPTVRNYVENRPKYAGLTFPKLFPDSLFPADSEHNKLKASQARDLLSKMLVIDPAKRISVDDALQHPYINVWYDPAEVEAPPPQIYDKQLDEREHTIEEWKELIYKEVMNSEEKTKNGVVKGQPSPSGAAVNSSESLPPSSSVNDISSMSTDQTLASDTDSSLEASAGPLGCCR
# Sequence of JNK2 (P45984 whole entry, species assumed): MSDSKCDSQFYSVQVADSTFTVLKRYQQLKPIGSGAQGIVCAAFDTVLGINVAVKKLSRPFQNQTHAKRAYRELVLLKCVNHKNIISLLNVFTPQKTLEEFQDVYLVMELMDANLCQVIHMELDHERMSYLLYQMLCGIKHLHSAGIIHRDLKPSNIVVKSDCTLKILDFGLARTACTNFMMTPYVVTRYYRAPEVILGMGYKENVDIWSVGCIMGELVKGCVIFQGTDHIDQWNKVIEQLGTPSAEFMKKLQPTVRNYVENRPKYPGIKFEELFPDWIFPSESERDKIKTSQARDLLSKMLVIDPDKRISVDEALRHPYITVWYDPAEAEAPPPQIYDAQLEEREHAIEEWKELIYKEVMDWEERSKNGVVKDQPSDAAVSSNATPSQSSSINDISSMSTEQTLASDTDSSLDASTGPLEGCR
structure (smiles),measurement,setting,value
"O=C(Cn1c(=O)ccc2cc(C(F)(F)F)ccc21)Nc1scc(Br)c1-c1nnc[nH]1 [IGP001, N-(4-bromo-3-(1H-1,2,4-triazol-5-yl)thiophen-2-yl)-2-(2-oxo-6-(trifluoromethyl)quinolin-1(2H)-yl)acetamide]",monocyte/macrophage recruitment in vivo,[1],significantly reduce monocyte/macrophage recruitment
same,IC50,JNK3,< 100 nM
same,deposited collagen in the lungs (Masson's Trichrome stain),[2],significantly reduced deposited collagen
same,collagen deposition,[3],significant reductions in collagen deposition
same,collagen type 1 protein and mRNA expression,[3],"significant reductions in collagen deposition, and collagen type 1 protein and mRNA expression"
same,non-alcoholic fatty liver disease activity score,[4]; thioacetamide-induced NASH model,significantly reduce the non-alcoholic fatty liver disease activity score
same,collagen deposition,[4]; thioacetamide-induced model,significant reductions in collagen deposition
same,collagen type 1 protein and mRNA expression,[4]; thioacetamide-induced model,"significant reductions in collagen deposition, and collagen type 1 protein and mRNA expression"
same,IC50,JNK2,< 100 nM
same,IC50,JNK1,< 100 nM
same,TGF-β1-induced ERK activation,ERK,but not p38 MAP Kinase or ERK Activation
same,TGF-β1-induced JNK phosphorylation,JNK,suppress TGF-β1-induced JNK phosphorylation in a dose-dependent fashion
same,amounts of phosphorylated SMAD2,SMAD2,significantly increase
